Results on seven compounds are retold here after patent US20110195420A1, “ESTROGEN AND ANTI-ESTROGEN MARKER GENES” (Merck Patent Gesellschaft, priority 2009, published 2011).

Experiment [1] concerns Ishikawa plus cells. The experiment can be described thus: Illumina global gene expression profiling in Ishikawa plus cells after 24 h EAC treatment (ANOVA, correlation, K-Means clustering). It is filed as cell-based, human. The method, then: Cells were routinely maintained in DMEM/F12 with L-Glutamine and 15 mM Hepes supplemented with 10% (v/v) FBS, 1% (v/v) penicillin (10 kU/ml)-streptomycin (10 mg/ml) solution, 0.1% (v/v) Gentamicin (50 mg/ml) and 1 mM sodium pyruvate at 37° C. and 5% CO2 in culture flasks. 5×10^5 cells were seeded onto 6-well plates in phenol-red free DMEM/F12 with L-Glutamine and 15 mM Hepes containing 10% (v/v) dextran-coated charcoal treated FBS, sodium pyruvate and antibiotics.
All experiments were performed three times with cells of passages 3-25.
After a 24 h treatment period cells were rinsed with PBS (Gibco Invitrogen, Karlsruhe, Germany), harvested and total RNA was extracted using the RNeasy Mini Kit (QIAGEN, Hilden, Germany) as described by the manufacturer, including the QIAshredder spin column procedure and on-column RNase-free DNase digestion. RNA was eluted with 40 μl of RNA-Storage solution (Ambion, Darmstadt, Germany). RNA quality control and quantification was determined using a NanoDrop® spectrophotometer (Kisker, Steinfurt, Germany) and 2100 Agilent Bio-Analyzer (Agilent Technologies, Waldbronn, Germany). Only RNA with a quality ratio A260/A280 between 1.9 and 2.1 and no evidence of peak degradation (18s/28s) was used.
Gene expression analysis was executed using Illumina Sentrix® HumanRef-8 V2 BeadChip Arrays (Illumina Inc., San Diego, Calif., USA) allowing the analysis of ˜23,000 transcripts. […] Instead of column cleanup, the bead-based Agencourt® RNAcIean™ system (Beckman Coulter, Krefeld, Germany) was applied to purify cDNA and cRNA. cRNA quantity was measured spectrophotometrically (NanoDrop®) and the 2100 Agilent Bio-Analyzer was used for quality assessment.
Seven hundred fifty nanograms of amplified biotinylated cRNA were hybridized onto the Illumina Sentrix® BeadChip in a Hybridization Cartridge under humidified conditions for 20 h at 58° C. (Hybridization oven, Illumina Inc., San Diego, Calif., USA). The chips were then washed, stained for 10 minutes with 1 μg/ml streptavidin-conjugated Cy3 (Amersham Biosciences, Buckinghamshire, UK) and finally dried by centrifugation according to the protocol provided.
Data were uploaded into Genedata's Expressionist® Analyst software (Genedata AG, Basel, Switzerland) for data normalization and statistical analysis. Data were normalized using Lowess (Locally Weighted Linear Regression) to offset non-biological differences (systematic variation) between the samples and arrays. After normalization fold-regulations for each individual compound treatment were calculated. The global gene set was reduced by filtering any signal intensity<200 (background level) to reduce error rates of multiple testing during further analysis.
Thus, only genes with a p-value and BH-Q-value less than 0.01 were accepted as significant.
For selection of characteristic estrogenicity marker genes, ANOVA was applied to the tested EACs against the vehicle controls. Only genes having a p-value and BH-Q-value less than 0.01 were accepted as significant.

Experiment [2] concerns the target T1, ERα (Homo sapiens, UniProt P03372).
T1 sequence (P03372 1-595): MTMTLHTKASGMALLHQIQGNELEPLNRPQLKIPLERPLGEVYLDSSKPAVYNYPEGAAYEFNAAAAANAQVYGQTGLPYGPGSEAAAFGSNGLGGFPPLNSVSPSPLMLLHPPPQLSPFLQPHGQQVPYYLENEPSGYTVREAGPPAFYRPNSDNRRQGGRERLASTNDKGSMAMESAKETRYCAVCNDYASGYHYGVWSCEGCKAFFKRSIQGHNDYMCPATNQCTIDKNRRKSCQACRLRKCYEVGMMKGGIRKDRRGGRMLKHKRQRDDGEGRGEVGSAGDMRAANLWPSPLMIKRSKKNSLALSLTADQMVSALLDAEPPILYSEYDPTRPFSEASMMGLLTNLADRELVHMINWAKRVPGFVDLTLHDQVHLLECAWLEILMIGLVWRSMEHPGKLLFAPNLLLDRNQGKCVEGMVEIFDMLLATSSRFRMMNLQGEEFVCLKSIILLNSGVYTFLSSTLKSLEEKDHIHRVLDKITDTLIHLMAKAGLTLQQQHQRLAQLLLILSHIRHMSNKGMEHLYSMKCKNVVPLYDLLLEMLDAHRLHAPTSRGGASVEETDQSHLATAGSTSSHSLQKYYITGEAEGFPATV
Particulars: consensus ERE reporter; used as low dose level; read-out: compound concentration causing a half maximal activation of the reporter gene (EC50); cited from earlier work. Background: Reporter assays use an easily measured gene product as a stand-in for the process of interest.

Where [3] appears, read: Pearson correlation on significantly regulated genes, 24 h, dose not specified.
Where [4] appears, read: clusters 3 and 4, same direction as ICI, 24 h.
The mark [5] stands for this setting: Pearson correlation, 24 h, high dose.
The mark [6] stands for this setting: Pearson correlation, 24 h, low dose.
Setting [7] is: K-Means clustering, p-value/BH-Q-value<0.01, 24 h.

The structures appear in SMILES notation. Entries after “also recorded” stand apart in the source; their conditions may differ. Where two headings read alike, the source gives them in different places.

As for `C[C@]12CC[C@@H]3c4ccc(O)cc4C[C@@H](CCCCCCCCC[S+]([O-])CCCC(F)(F)C(F)(F)F)[C@H]3[C@@H]1CC[C@@H]2O` (stereo partly drawn) [ICI, ICI 182,780], the “regulation of the 87 marker genes” value in experiment [1] (ICI 100 nM alone and ICI/compound combination, 24 h) is reported as “Most genes showed a weaker regulation score or were diametrically regulated”.
In the case of `Oc1ccc(C=Cc2cc(O)cc(O)c2)cc1` [RESV, Resveratrol], in experiment [2], the EC50 is 7.5 µM. In experiment [1] (24 h), the “estrogen-like gene expression, share of significantly regulated genes” value is 48%; the “portion of the putative estrogenic marker genes regulated unidirectional to ICI” value is listed as “one third”; the “share of ER-dependent regulated genes (clusters 1 and 2) also regulated in the same direction after DES treatment” value (from here on “share of ER-dependent regulated genes”) is 6%. Also, in experiment [1] (setting [3]), the “correlation of gene expression compared with DES” value (“correlation … compared with DES” below) is given as “no correlation” and the “correlation of gene expression to ICI” value was “high positive correlation”. Besides, the “anti-estrogen-like gene regulation, share of significantly regulated genes” value in experiment [1] (setting [4]) came out at 52%.
Consider `Clc1ccc(C(c2ccccc2Cl)C(Cl)(Cl)Cl)cc1` (stereo not drawn) [DDT, o,p′-Dichlordiphenyltrichlorethane], for which, in experiment [1], the “anti-estrogen-like gene regulation, share of significantly regulated genes” value is on record as 85%; the “correlation … compared with DES” value is “low positive correlation”; the “correlation of gene expression to ICI” value was “high positive correlation; also recorded: high correlations; also recorded: good correlation”; the “share of ER-dependent regulated genes” value came to 72%.
As for `O=c1c(-c2ccc(O)cc2)coc2cc(O)cc(O)c12` [GEN, Genistein], in experiment [1] (24 h), the “doses at which anti-estrogenic gene regulation was displayed” value was “only at low doses”; the “share of ER-dependent regulated genes” value is “Approximately 66%”. For the same compound, the “correlation of gene expression to ICI” value in experiment [1] (setting [3]) is “good correlation”. For the same compound, in experiment [1] (setting [5]), the “correlation … compared with DES” value is “medium to high correlations” and the “similarity of gene expression with ICI” value is reported as “little similarity”. In experiment [1] (setting [6]), the “correlation … compared with DES” value is listed as “low positive correlation” and the “correlation of gene expression to ICI” value is reported as “high positive correlation; also recorded: high correlations”. For the same compound, in experiment [1] (high dose, 24 h), the “kind of regulated genes identified by K-Means clustering” value (“kind of regulated genes identified” for short) is listed as “only ER-dependent regulated genes were identified; also recorded: Only genes with ER-dependent regulation profiles”. For the same compound, the “share of low dose deregulated genes similarly regulated by ICI (clusters 5 and 6)” value in experiment [1] (low dose, 24 h) is “approximately 86%”.
With `CC/C(=C(/CC)c1ccc(O)cc1)c1ccc(O)cc1` [DES, Diethylstilbestrol], the “kind of regulated genes identified” value in experiment [1] (24 h, dose not specified) is “only genes with ER-dependent expression profiles; also recorded: Only genes with ER-dependent regulation profiles”. Besides, in experiment [1] (setting [7]), the “number of down-regulated genes with ER-dependent expression profiles” value was 62 and the “number of up-regulated genes with ER-dependent expression profiles” value is given as 193. The “correlation of gene expression to ICI” value in experiment [1] (setting [3]) is given as “negatively correlated”.
For `C[C@H]1CCCC(=O)CCC/C=C/c2cc(O)cc(O)c2C(=O)O1` [ZEA, Zearalenone], the EC50 in experiment [2] is 0.0025 µM. Further, in experiment [1] (24 h), the “doses at which anti-estrogenic gene regulation was displayed” value is “only at low doses”; the “share of ER-dependent regulated genes” value was “Approximately 66%”. Further, the “correlation of gene expression to ICI” value in experiment [1] (setting [3]) is reported as “good correlation”. For the same compound, in experiment [1] (setting [5]), the “correlation … compared with DES” value was “medium to high correlations” and the “similarity of gene expression with ICI” value is given as “little similarity”. Besides, in experiment [1] (setting [6]), the “correlation … compared with DES” value is recorded as “low positive correlation” and the “correlation of gene expression to ICI” value was “high positive correlation; also recorded: high correlations”. Besides, in experiment [1] (high dose, 24 h), the “kind of regulated genes identified” value is “only ER-dependent regulated genes were identified; also recorded: Only genes with ER-dependent regulation profiles”. In addition, in experiment [1] (low dose, 24 h), the “share of low dose deregulated genes similarly regulated by ICI (clusters 5 and 6)” value is ~91%.
As to `CC(C)(c1ccc(O)cc1)c1ccc(O)cc1` [BPA, Bisphenol A], the “share of ER-dependent regulated genes” value in experiment [1] (24 h) is recorded as “Eighty”. In experiment [1] (setting [3]), the “correlation … compared with DES” value is on record as “low positive correlation” and the “correlation of gene expression to ICI” value is reported as “high positive correlation; also recorded: high correlations; also recorded: good correlation”. Also, in experiment [1] (setting [4]), the “anti-estrogen-like gene regulation, share of significantly regulated genes” value was 86%.
